Experimental data: patent EP1092427B1, “Use of a peptide avoiding skin intolerance reactions, especially in cosmetic compositions” (L'ORÉAL, priority 1999, dated 2007)
Non-standard residues stand in square brackets, D forms with d. Residues, ends and D or L forms follow the SMILES beside them.

Assays:
[1] = system: patients volontaires; assay: Topical effect in human volunteers with nickel contact allergy (nickel sulfate patch test); format: in vivo, homme; settings: out of 14 nickel-sensitised persons; cream with 100 µM peptide under occlusive dressing on back skin 2 h before 5 % nickel sulfate patch; read 24 h later
Description: Cette étude a été effectuée sur des patients volontaires âgés de 18 à 65 ans, chez lesquels une allergie de contact au nickel était suspectée. Ces patients étaient exempts d'autres maladies cutanées, et les résultats de cette étude montrent qu'ils n'avaient pas d'allergie aux constituants de la crème utilisée comme véhicule.
Au jour 0, on applique avec un pansement occlusif, sur des zones de la peau du dos, d'une part une crème contenant 100 µM du peptide de formule II, et d'autre part la crème seule, sans peptide, utilisée comme placebo.
Deux heures plus tard, on applique sur les mêmes zones de la peau, et aussi sur une zone adjacente non prétraitée, des patchs imprégnés de vaseline contenant du sulfate de nickel à une concentration de 5 %.
24 heures plus tard, on examine les patients. Ceux qui ont développé une réaction d'hypersensibilité de contact sur la zone traitée par le placebo (et aussi sur la zone adjacente n'ayant reçu que l'application de sel de nickel), et qui sont donc des personnes qui étaient déjà sensibilisées au nickel, sont au nombre de 14. Sur ces 14 personnes, 7 n'ont développé aucune réaction d'hypersensibilité de contact sur la zone traitée par le peptide.

[2] = system: souris femelles Balb/C; assay: TNCB contact hypersensitivity in mice after a second sensitisation (tolerance test, ear swelling); format: in vivo
From the text: 14 jours après la fin de l'expérience décrite en a) ci-dessus, on soumet les mêmes souris à une nouvelle réaction de sensibilisation sur la peau rasée du dos, comme décrit en a).
7 jours plus tard, on effectue le test de déclenchement par application du TNCB sur l'oreille, et 24 heures plus tard, on mesure le degré de gonflement de l'oreille.
Cette seconde expérience a pour but de faire une distinction entre une éventuelle immunosuppression temporaire aspécifique et une tolérance immunologique spécifique.

[3] = system: souris femelles Balb/C; assay: TNCB contact hypersensitivity in mice, peptide applied topically in a water-in-oil cream (ear swelling); format: in vivo; settings: peptide in water-in-oil cream applied on the zone to be sensitised 2 h before sensitisation; measured 24 h after challenge; positive controls 7×10^-2 mm
Description: (§1) L'étude est effectuée sur des souris femelles Balb/C âgées de 7 à 10 semaines.
(§2) La réaction de sensibilisation consiste à appliquer au pinceau 100 µl d'une solution à 0,15 % de TNCB dans un mélange acétone-huile d'olive (4:1) sur la peau rasée de l'abdomen des souris.
(§3) La réaction déclenchante est réalisée 7 jours après la réaction de sensibilisation. Cette réaction déclenchante consiste à appliquer sur les deux faces d'une oreille 10 microlitres d'une solution à 0,8 % de TNCB dans un véhicule constitué par le mélange acétone-huile d'olive déjà mentionné ci-dessus.
(§4) Sur l'autre oreille, on applique, pour comparaison, uniquement ce mélange d'acétone et d'huile d'olive.
(§5) On évalue l'intensité d'une éventuelle réaction d'hypersensibilité de contact par estimation de l'importance de l'oedème de l'oreille traitée par le TNCB, en comparaison avec l'oreille traitée par le seul véhicule. Pour cela, on mesure et compare l'épaisseur des oreilles à l'aide d'une vis micrométrique. Cette mesure est effectuée 24 heures après la réaction déclenchante.
On opère comme en a) ci-dessus, mais le peptide, incorporé dans une crème de type eau-dans-l'huile, est appliqué sur la zone à sensibiliser 2 heures avant la sensibilisation.

[4] = system: souris femelles Balb/C; assay: TNCB contact hypersensitivity in mice, peptide injected intravenously before sensitisation (ear swelling); format: in vivo
Description: as §1
On injecte une dose de 1,5 µg du peptide étudié (en solution dans du tampon PBS contenant 0,1 % de sérum de souris) dans une veine de la queue des souris 2 heures avant la réaction de sensibilisation.
as §2, §3, §4, §5
On applique également le TNCB sur l'oreille de souris témoins n'ayant pas été préalablement sensibilisée (témoins négatifs). […]

**Q.** With `CC(=O)N[C@H](CCCCN)C(=O)N1CCC[C@@H]1C(=O)N[C@@H](C(N)=O)C(C)C` [peptide de formule II, Ac-D-Lys-D-Pro-D-Val-NH2] (Ac-[dK]-[dP]-[dV]-NH2) as the molecule, how does the “personnes n'ayant développé aucune réaction d'hypersensibilité de contact sur la zone traitée par le peptide” value [1] read?
**A.** The value was 7.

**Q.** And the “hypersensibilité de contact après une seconde dose sensibilisante de TNCB (result in words)” value ([2]; mice treated with peptide before the first sensitisation only)?
**A.** Its value is “n'ont pas développé une hypersensibilité de contact”.

**Q.** And the “degré de gonflement de l'oreille” value ([2]; same mice re-sensitised with TNCB on the back 14 days after first experiment, no new peptide dose, challenge 7 days later, measured 24 h later, positive controls about 14×10^-2 mm, negative controls about 3,5×10^-2 mm)?
**A.** The value was ~3,5×10^-2 mm.

**Q.** What about the “augmentation de l'épaisseur de l'oreille” value [3] of the same molecule?
**A.** Its value is 3×10^-2 mm.

**Q.** What about the “réaction d'hypersensibilité de contact (result in words)” value ([4]; 1,5 µg peptide i.v. 2 h before TNCB sensitisation) of the same molecule?
**A.** The value was “réduit fortement la réaction d'hypersensibilité de contact”.

**Q.** What about the “augmentation de l'épaisseur de l'oreille” value ([4]; 1,5 µg peptide i.v. (tail vein) 2 h before sensitisation with 0,15 % TNCB, challenge day 7 with 0,8 % TNCB on ear, measured 24 h after challenge, ^-2 mm, negative controls about 1×10^-2 mm) of the same molecule?
**A.** Its value is ~2,5×10^-2 mm.
